Here are results for seven substances from patent US6913892B1, “Method of obtaining compositions comprising Y4 specific compounds” (H. Lundbeck A/S, priority 1993, dated 2005).

Experiment [1] has as its target T1, Y1 receptor (Homo sapiens, UniProt P25929).
T1 sequence (P25929 1-384): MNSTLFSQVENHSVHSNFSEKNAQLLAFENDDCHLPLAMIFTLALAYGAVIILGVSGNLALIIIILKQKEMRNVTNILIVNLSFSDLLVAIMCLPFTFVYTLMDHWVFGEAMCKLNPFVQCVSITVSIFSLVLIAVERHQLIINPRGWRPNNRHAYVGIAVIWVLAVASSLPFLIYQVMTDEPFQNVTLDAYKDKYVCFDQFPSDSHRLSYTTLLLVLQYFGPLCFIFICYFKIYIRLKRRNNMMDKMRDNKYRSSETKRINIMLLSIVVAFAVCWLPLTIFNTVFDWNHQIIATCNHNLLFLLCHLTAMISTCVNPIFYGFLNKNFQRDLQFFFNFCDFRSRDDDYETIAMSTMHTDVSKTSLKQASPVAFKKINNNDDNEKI
Briefly: Competitive displacement / binding of 125I-PYY, membranes of COS-7 cells transiently expressing human Y1 receptors. The arrangement: expressed in transfected cells; host or cells: COS-7.
Experimental: (§1) Cell culture: COS-7 cells were grown on 150 mm plates (Corning) in D-MEM with supplements (Dulbecco's Modified Eagle Medium with 10% bovine calf serum, 2 mM glutamine, 100 units/ml penicillin/80 units/ml streptomycin) at 37° C., 5% CO2.
Membrane Harvest: Membranes were harvested from COS-7 cells 48 hours after transfection and from SK-N-Be(2) seven days after splitting.
(§2) Radioligand Binding to Membrane Suspensions: Membrane suspensions were diluted in binding buffer supplemented with 0.1% bovine serum albumin and 0.1% bacitracin to yield an optimal membrane protein concentration: ˜0.02 mg/ml for human Y1 receptors, ˜0.015 mg/ml for hp25a receptors, and ˜0.25 mg/ml for SK-N-Be(2). […] Incubations were terminated by filtration over Whatman GF/C filters (pre-coated with 0.5% polyethyleneimine and air-dried before use). […] Specific binding in time course and competition studies was typically 80%; most non-specific binding was associated with the filter.

Experiment [2] addresses T2, human hp25a (Y4) receptor (Homo sapiens, UniProt P50391).
T2 construct: The entire coding region of hp25a (1127 bp); expressed in transfected cells; host or cells: COS-7
Nature of the experiment: Competitive displacement / binding of 125I-PYY, membranes of COS-7 cells transiently expressing hp25a (human Y4) receptors.
Experimental: as §1
Membrane Harvest: Membranes were harvested from COS-7 cells 48 hours after transfection and from SK-N-Be(2) seven days after splitting. […] Large particles and debris were cleared by low speed centrifugation (200×g, 10 min, 4° C.).
as §2

The target in another experiment is Y3 receptor. The conditions noted are these: Table 1, rank orders from published reports; cited from earlier work.
The target in experiment [3] is T1, Y1 receptor. The conditions noted are these: Table 1, rank orders from published reports; cited from earlier work.
A further experiment concerns PYY-preferring receptor. The conditions noted are these: Laburthe et al., 1986, 1990; cited from earlier work.
The next experiment addresses PP receptor. The conditions noted are these: Table 1, rank orders from published reports; cited from earlier work.
The mark [4] stands for this setting: N-terminal deletion of porcine NPY.

T2 sequence (P50391 whole entry): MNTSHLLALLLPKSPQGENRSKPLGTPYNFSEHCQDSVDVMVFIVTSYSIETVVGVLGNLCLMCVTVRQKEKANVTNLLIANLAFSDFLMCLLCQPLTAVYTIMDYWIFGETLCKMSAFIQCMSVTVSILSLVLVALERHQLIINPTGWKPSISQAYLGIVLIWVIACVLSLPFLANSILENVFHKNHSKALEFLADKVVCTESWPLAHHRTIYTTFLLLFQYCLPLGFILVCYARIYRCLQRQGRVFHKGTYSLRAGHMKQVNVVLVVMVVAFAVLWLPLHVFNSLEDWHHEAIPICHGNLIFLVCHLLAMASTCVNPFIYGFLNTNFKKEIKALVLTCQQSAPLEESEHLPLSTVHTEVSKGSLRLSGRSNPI

Regarding ^125I-PYY, the “observed association rate (Kobs)” value was 0.06 ± 0.02 min⁻¹ on Y1 receptor [1] (human Y1 in COS-7) and 0.12 ± 0.02 min⁻¹ in experiment [2] (hp25a, 0.06 nM 125I-PYY).

Consider “[Pro^34]NPY: NPY analog with Pro34 (Table 1)”, for which, at Y3 receptor, the “Affinity (−pKi or −pEC50), Y3” value is on record as 9 to 8.

Turning to “NPY2-36: NPY fragment 2-36, species not stated (Table 1)”, in the experiment with Y1 receptor [3], the “Affinity (−pKi or −pEC50), Y1” value is 9 to 8.

As to “PYY: peptide YY, species not stated at the place”, in the experiment with PYY-preferring receptor, the “higher affinity for PYY than for NPY” value was 5-10 fold. At Y3 receptor, the “Affinity (−pKi or −pEC50), Y3” value is under 6.

For Neuropeptide Y [NPY], on Y3 receptor, the “Affinity (−pKi or −pEC50), Y3” value is 10 to 9. The “Affinity (−pKi or −pEC50), PP” value at PP receptor is listed as under 6.

Turning to “NPY13-36: NPY carboxyl-terminal fragment 13-36, species not stated; b153 folds follow porcine data”, in the experiment with Y1 receptor [1] (setting [4]), the “decrease in affinity compared with full length parent peptide, human Y1 receptors” value stood at 1000 fold. Besides, the “decrease in affinity compared with full length parent peptide, hp25a” value in experiment [2] (setting [4]) amounted to 33 fold.

For the substance “[LEU^31, Pro^34]NPY: analog of NPY modified at residues 31 and 34, species not stated (Table 1)”, at PP receptor, the “Affinity (−pKi or −pEC50), PP” value is on record as 9 to 8.
